{
  "source": "paper PMC8034593",
  "about": "(The FEBS journal, 2020)",
  "molecular_target": "KanJ (kanamycin B dioxygenase) (Streptomyces kanamyceticus, UniProt Q6L732)",
  "sequence (Q6L732 whole entry)": "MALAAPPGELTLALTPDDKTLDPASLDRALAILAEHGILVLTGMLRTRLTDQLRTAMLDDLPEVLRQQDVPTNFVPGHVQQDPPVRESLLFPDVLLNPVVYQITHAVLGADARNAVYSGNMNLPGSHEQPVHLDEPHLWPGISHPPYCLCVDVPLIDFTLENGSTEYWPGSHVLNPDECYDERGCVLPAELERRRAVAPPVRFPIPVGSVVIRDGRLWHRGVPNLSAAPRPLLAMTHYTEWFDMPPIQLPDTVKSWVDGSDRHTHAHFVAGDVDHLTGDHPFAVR",
  "assay": "isothermal titration calorimetry",
  "type": "binding",
  "data": [
    {"molecule": "NC[C@H]1O[C@H](O[C@H]2[C@H](O)[C@@H](O[C@H]3O[C@H](CO)[C@@H](O)[C@H](N)[C@H]3O)[C@H](N)C[C@@H]2N)[C@H](N)[C@@H](O)[C@@H]1O", "note": "[KAN, kanamycin B]", "values": [
      {"measurement": "Kd", "value": 1540, "unit": "nM"}
    ]}
  ]
}
